Test systems include Streptococcus mutans; Acinetobacter sp.; Escherichia coli; Enterobacter cloacae; Escherichia coli P4; Klebsiella aerogenes; Klebsiella pneumoniae; Pseudomonas aeruginosa; Serratia marcescens.
What all share (experiment): ≥ marks a high value that may be exact or a test limit, other limits are often not marked, values filed in µg/mL are converted to µM
Assay [1] concerns Escherichia coli ATCC 25922.
Assay [2] concerns Listeria monocytogenes CMCC 54002.
The subject of assay [3] is Salmonella typhimurium CMCC 50013.
Assay [4] deals with Shigella dysenteriae CMCC 51302.
The subject of assay [5] is Staphylococcus aureus ATCC 29213.
Assay [6] has as its system Streptococcus pyogenes ATCC 12344.
The subject of assay [7] is Bacillus subtilis ATCC 6633.
Assay [8] relates to Pseudomonas aeruginosa ATCC 25668.
Assay [9] relates to Staphylococcus aureus ATCC 9144.
Assay [10] has as its system Klebsiella pneumoniae ATCC 13883.
The test system of assay [11] is Listeria monocytogenes ATCC 35152.
Assay [12] concerns Pseudomonas aeruginosa ATCC 27853.
Assay [13] deals with Staphylococcus aureus ATCC 25923.
Assay [14] has as its system Acinetobacter baumannii ATCC 19606.
Assay [15] relates to Acinetobacter baumannii ATCC BAA-1605.
Assay [16] relates to Acinetobacter baumannii ATCC BAA-747.
The subject of assay [17] is Acinetobacter baumannii NR-13375.
Assay [18] deals with Acinetobacter baumannii NR-9667.
In assay [19] the test system is Pseudomonas aeruginosa 1017.
Assay [20] has as its system Pseudomonas aeruginosa 1109.
Assay [21] has as its system Pseudomonas aeruginosa 1125.
In assay [22] the test system is Pseudomonas aeruginosa 16011.
Assay [23] concerns Pseudomonas aeruginosa ATCC 10145.
In assay [24] the test system is Pseudomonas aeruginosa ATCC 15442.
Assay [25] concerns Pseudomonas aeruginosa ATCC 25619.
For assay [26], the system named is Pseudomonas aeruginosa ATCC 35032.
In assay [27] the test system is Pseudomonas aeruginosa ATCC 9027.
The subject of assay [28] is Pseudomonas aeruginosa ATCC 9721.
For assay [29], the system named is Pseudomonas aeruginosa ATCC BAA-1744.
The test system of assay [30] is Staphylococcus aureus ATCC 43300.
Assay [31] has as its system Staphylococcus aureus ATCC 6538.
In assay [32] the test system is Staphylococcus aureus ATCC BAA-44.
Assay [33] has as its system Staphylococcus aureus NRS 19.
Assay [34] concerns Staphylococcus aureus NRS 1.
In assay [35] the test system is Staphylococcus aureus NRS 72.
The test system of assay [36] is Staphylococcus aureus RN4220.
Assay [37] concerns Staphylococcus aureus USA 100.
The test system of assay [38] is Staphylococcus aureus USA 200.
Assay [39] concerns Staphylococcus aureus USA 300.
Assay [40] relates to Staphylococcus aureus VRSA1.
The subject of assay [41] is Staphylococcus epidermidis NRS 101.

Converted amounts (≈) assume the structure as drawn.

For `CC(C)C[C@H](NC(=O)CN)C(=O)N[C@@H](Cc1ccccc1)C(=O)N[C@@H](CCCN=C(N)N)C(=O)N[C@@H](C)C(=O)N[C@@H](CC(C)C)C(=O)N[C@@H](CC(C)C)C(=O)N[C@@H](CCCN=C(N)N)C(=O)N[C@@H](CC(C)C)C(=O)N[C@@H](CC(C)C)C(=O)N[C@@H](CCCN=C(N)N)C(=O)N[C@@H](CO)C(=O)N[C@@H](CC(C)C)C(=O)N[C@@H](Cc1c[nH]c2ccccc12)C(=O)N[C@@H](CCCN=C(N)N)C(=O)N[C@@H](CC(C)C)C(=O)N[C@@H](CC(C)C)C(=O)N[C@@H](CC(C)C)C(=O)N[C@@H](CCCN=C(N)N)C(=O)N[C@@H](C)C(=O)O` [GLFRALLRLLRSLWRLLLRA], the MIC (in general, the lowest concentration found to suppress growth) in assay [1] is > 64 µM; in assay [2], ≥ 64 µM; in [3] it was ≥ 64 µM; in [4] it was ≥ 64 µM; in assay [5] it was > 64 µM; against Streptococcus mutans, ≥ 64 µM. Moreover, the MIC in [6] is ≥ 64 µM.
As for `CC[C@H](C)[C@H](N)C(=O)N[C@@H](CCCCN)C(=O)N1CCC[C@H]1C(=O)N[C@@H](C)C(=O)NCC(=O)N[C@@H](CCCCN)C(=O)N[C@@H](CC(C)C)C(=O)N[C@@H](Cc1ccccc1)C(=O)N[C@@H](CCCCN)C(=O)N[C@@H](CC(C)C)C(=O)N[C@@H](Cc1ccccc1)C(=O)N[C@@H](CCCCN)C(N)=O` [IKPAGKLFKLFK], the MIC with Acinetobacter sp. is ≥ 46.1 µM; in [7], ≥ 368 µM; against Escherichia coli it was 368 µM (≈ 512 µg/mL); in assay [8], ≥ 368 µM; in assay [9] it was ≥ 368 µM.
Take `CC[C@H](C)[C@H](NC(=O)[C@H](Cc1cnc[nH]1)NC(=O)[C@@H](NC(=O)[C@H](CCCN=C(N)N)NC(=O)[C@@H](N)C(C)C)[C@@H](C)CC)C(=O)N[C@@H](CO)C(=O)NCC(=O)N[C@@H](CO)C(=O)N[C@@H](CO)C(=O)N[C@@H](CC(C)C)C(=O)NCC(=O)N[C@@H](Cc1c[nH]c2ccccc12)C(=O)N[C@@H](CC(C)C)C(=O)N[C@H](C(=O)N[C@@H](CCC(N)=O)C(=O)N[C@@H](CC(C)C)C(=O)N[C@@H](Cc1ccccc1)C(=O)N[C@@H](CCCN=C(N)N)C(=O)N[C@@H](CCCCN)C(=O)N[C@@H](CCCN=C(N)N)C(=O)N[C@H](C(=O)N[C@@H](CCC(=O)O)C(=O)N[C@@H](CO)C(=O)N[C@@H](CC(C)C)C(=O)N[C@@H](CC(C)C)C(=O)N[C@@H](CCC(N)=O)C(=O)N[C@@H](CCCCN)C(=O)N[C@@H](CO)C(=O)O)[C@@H](C)CC)[C@@H](C)CC` [VRIHISGSSLGWLIQLFRKRIESLLQKS]: the MIC against Enterobacter cloacae is ≥ 78.4 µM; in assay [1], 55.4 µM (≈ 181 µg/mL); in the assay on Escherichia coli P4, ≥ 55.4 µM; in the assay on Escherichia coli, 78.4 µM (≈ 256 µg/mL); in the assay on Klebsiella aerogenes, ≥ 78.4 µM; against Klebsiella pneumoniae it was > 78.4 µM. For the same molecule, the MIC is > 78.4 µM in the assay on Pseudomonas aeruginosa, ≥ 157 µM against Serratia marcescens and 55.4 µM (≈ 181 µg/mL) in [5].
For `CC(C)C[C@H](NC(=O)[C@H](CCCN=C(N)N)NC(=O)[C@H](CCCCN)NC(=O)[C@@H](N)Cc1c[nH]c2ccccc12)C(=O)N[C@H](C(=O)N[C@@H](C)C(=O)N[C@@H](C)C(=O)N[C@@H](CO)C(=O)N[C@@H](C)C(=O)N[C@@H](CCCCN)C(=O)N[C@@H](CCCCN)C(=O)N[C@@H](CCCCN)C(N)=O)C(C)C` [WKRLVAASAKKK], the MIC in assay [1] is 10.8 µM (≈ 15 µg/mL); in [10], 18 µM (≈ 25 µg/mL); in assay [11], 10.8 µM (≈ 15 µg/mL); in assay [12], 14.4 µM (≈ 20 µg/mL); in [13], 7.22 µM (≈ 9.99 µg/mL).
Consider `CC[C@H](C)[C@H](NC(=O)[C@H](CCCN=C(N)N)NC(=O)[C@H](CCCN=C(N)N)NC(=O)[C@H](CC(C)C)NC(=O)[C@H](Cc1c[nH]c2ccccc12)NC(=O)[C@H](C)NC(=O)[C@H](CCCCN)NC(=O)[C@@H](NC(=O)[C@H](CCCN=C(N)N)NC(=O)[C@H](CCCN=C(N)N)NC(=O)[C@H](CC(C)C)NC(=O)[C@@H](N)Cc1c[nH]c2ccccc12)[C@@H](C)CC)C(=O)N[C@@H](CCCCN)C(=O)N[C@@H](C)C(=O)O` [WLRRIKAWLRRIKA], for which the MIC is 2 µM (≈ 3.73 µg/mL) in assay [14]; 2 µM (≈ 3.73 µg/mL) in assay [15]; 2 µM (≈ 3.73 µg/mL) in assay [16]; 2 µM (≈ 3.73 µg/mL) in assay [17]; 4 µM (≈ 7.47 µg/mL) in assay [18]; ≥ 32 µM in assay [19]. For the same molecule, the MIC stood at 4 µM (≈ 7.47 µg/mL) in [20]; 8 µM (≈ 14.9 µg/mL) in [21]; 16 µM (≈ 29.9 µg/mL) in assay [22]; 8 µM (≈ 14.9 µg/mL) in assay [23]; 8 µM (≈ 14.9 µg/mL) in [24]; 8 µM (≈ 14.9 µg/mL) in [25]. Further, the MIC amounted to 8 µM (≈ 14.9 µg/mL) in [12]; 8 µM (≈ 14.9 µg/mL) in [26]; 4 µM (≈ 7.47 µg/mL) in assay [27]; 8 µM (≈ 14.9 µg/mL) in assay [28]; 8 µM (≈ 14.9 µg/mL) in assay [29]; 4 µM (≈ 7.47 µg/mL) in assay [30]. The MIC in assay [31] stood at 2 µM (≈ 3.73 µg/mL); in [32], 4 µM (≈ 7.47 µg/mL); in assay [33] it was 4 µM (≈ 7.47 µg/mL); in [34] it was 2 µM (≈ 3.73 µg/mL); in [35], 4 µM (≈ 7.47 µg/mL); in assay [36] it was 4 µM (≈ 7.47 µg/mL). Moreover, the MIC is 2 µM (≈ 3.73 µg/mL) in assay [37]; 4 µM (≈ 7.47 µg/mL) in [38]; 4 µM (≈ 7.47 µg/mL) in assay [39]; 4 µM (≈ 7.47 µg/mL) in assay [40]; 2 µM (≈ 3.73 µg/mL) in assay [41].

The record behind these values is DBAASP.
